Legend:
[1] = tested on: wild-type HEK-293 cells; experiment: Intracellular calcium flux in wild-type HEK-293 (specificity control); format: cell-based, human
Protocol: (§1) To explore the mechanism of action through which the sLXm lead compound exerts the effects seen here, its interaction with the ALX/FPR2 receptor was investigated and agonist-induced intracellular calcium transients were measured using an engineered cell line stably overexpressing the ALX/FPR2 receptor and the Gαq subunit coupled to it (Figure S6). Wild-type HEK cells were used as controls, to verify the specificity of the agonism toward ALX/FPR2, as previously reported.[36] Briefly, prior to cell plating, sterile 96-well plates (black-sided with optically clear glass flat bottoms) were PDL-coated overnight. Subsequently, 2 × 10^5 wild-type cells and overexpressed cells/well were cultured for 18 h in DMEM complete media (containing Ca^2+ and Mg^2+) to facilitate adherence prior to labeling with Fluo-4 dye. After 1 h of incubation at 37 °C with Fluo-4, cells were gently washed twice and placed in 100% Hanks’ balanced salt solution (HBSS; 37 °C) before reading the fluorescence (485/535 nm), using a spectrophotometer conjugated with an injection system (Clariostar BMG LABTECH plate reader), allowing addition to the cells of controls (1 mM ATP, a GPCR purinergic agonist, 2 nM Wp, a synthetic ALX/FPR2 agonist) or experimental treatments [10 pM, 1 nM, and 100 nM LXA41 or (R)-6].

[2] = target: T1, ALX/FPR2 receptor (Homo sapiens, UniProt P25090); experiment: Intracellular calcium flux in FPR2+/Gαq+ stably transfected HEK-293; format: cell-based; conditions: ATP 1 μM; Wp 2 nM
T1 construct: host or cells: HEK-293, stably double-transfected FPR2+/Gαq+
T1 sequence (P25090 1-351): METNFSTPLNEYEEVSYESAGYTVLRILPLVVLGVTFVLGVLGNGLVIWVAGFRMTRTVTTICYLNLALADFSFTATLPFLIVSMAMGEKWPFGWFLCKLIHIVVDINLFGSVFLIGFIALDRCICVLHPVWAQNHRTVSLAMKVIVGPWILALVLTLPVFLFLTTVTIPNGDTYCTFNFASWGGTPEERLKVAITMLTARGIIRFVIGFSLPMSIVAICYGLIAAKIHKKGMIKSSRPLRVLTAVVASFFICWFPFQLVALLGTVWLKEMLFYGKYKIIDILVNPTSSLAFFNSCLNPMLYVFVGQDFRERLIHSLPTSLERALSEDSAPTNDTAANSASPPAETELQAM
Protocol: HEK-293-transfected and wt cell lines were cultured in Dulbecco’s modified Eagle’s medium (DMEM Glutamax, 4 mM L-glu and 4.50 g/L glucose—Gibco, Ireland) supplemented with heat-inactivated (30 min at 56C) 10% (v/v) FBS (Invitrogen, U.K.), 50 U penicillin, and 50 μg of streptomycin (Invitrogen, U.K.). As stably double-transfected FPR2^+/Gαq^+ HEK-293 cells were resistant to Geneticin and Hygromycin, these were used as selective antibiotics (500 and 100 μg/mL, respectively) to maintain the stable double transfection with the ALX/FPR2 receptor and the Gαq subunit coupled to it. Immediately prior to calcium measurement, fluorescently labeled cells were treated with 10^–11/–9/–7M LXA41 or sLXms using an injection system coupled to the fluorescence reader.
as §1, with “([…],” for “(1 mM ATP, a GPCR purinergic agonist,”
During calcium flux measurement, the kinetic steps involved were the following: the baseline fluorescent signal was measured for 20 s, followed by 100 s immediately after agonist injection. Subsequently, 2% Triton-X-100 was added to lyse the cells (monitoring for 20 s the maximal release of calcium ions in the extracellular environment) and, finally, 25 mM tetraacetic acid (EGTA) was added to chelate calcium ions (monitoring for additional 20 s the minimal detection of calcium ions in the extracellular environment) (Figure S7).
(§2) The “coding” of the heat-map indicates the arbitrary criteria to assign points to each single PD component (efficacy = Imax or Emax; potency = IC50 or EC50; slope = HS) to generate a final (aggregate) relative PD score. If a single PD component was greater than the reference level (x > 1), then the single-component relative score was arbitrarily set to +1 (light green) or +2 (dark green). If a single PD component was equal to the reference level (x = 1), then the single-component relative score was arbitrarily set to 0 (gray). If a single PD component was smaller than the reference level (x < 1), then the single-component relative score was arbitrarily set to −1 (light red) or −2 (dark red). If the curve of a single PD component was best fitting to a flat line (x = 0), then the single-component relative score was arbitrarily set to −4 (purple) (Table S1).

[3] = tested on: IFNγ; experiment: LPS-induced IFNγ release from THP-1 Lucia monocytes (multiplex electrochemiluminescence); format: cell-based, human; conditions: Dex 1 μM; 2 1 pM; LPS 50 ng/mL, 24 h
Protocol: (§3) LXA41 and all of the tested sLXms were dissolved in ethanol and further diluted in a culture medium (final ethanol concentration 0.1%; equivalent concentrations were used as the vehicle control). Prior to in vitro experiments, THP-1-Lucia NF-κB cells were harvested and plated at 1 × 10^5 cells/well on 96-well plates and left to settle in the incubator at 37 °C, 95% humidity, and 5% CO2, in 0.1% FBS-containing media, pretreated for 30 min with increasing doses of LXA41, sLXms (from 10^–12 to 10^–6 M), or appropriate controls, followed by stimulation with 50 ng/mL LPS for 24 h. Untreated (Unt) or vehicle-treated (Veh) cells were used as negative controls; 1 pM (1R)-5, the (1R)-epimer of the benzo-mimetic, was used as a positive control for any aromatic mimetic; and, finally, we compared the observed effects to the conventional glucocorticoid dexamethasone (Dex) treatment, at 1 μM.
(§4) After 24 h of exposure to LXA41, sLXms, or vehicle, followed by LPS stimulation (50 ng/mL), as described above, THP-1-Lucia NF-κB-cell supernatants were collected and cleared by centrifugation. Concentrations of IFN-γ, IL-1β, IL-6, IL-8, IL-10, IL-12p70, and TNF-α in culture supernatants were assessed by electro-chemi-luminescent detection, using a commercially available human 96-well plate “multiplex” (several analytes in the same well) kit for tissue culture samples, according to the manufacturers’ guidelines.
as §2

[4] = tested on: IL-6; experiment: LPS-induced IL-6 release from THP-1 Lucia monocytes (multiplex electrochemiluminescence); format: cell-based, human; conditions: Dex 1 μM; 2 1 pM; LPS 50 ng/mL, 24 h
Protocol: as §3, §4, §2

[5] = tested on: THP-1 LUCIA monocytes; experiment: Intrinsic cytotoxicity: LDH release without LPS; format: cell-based, human; conditions: absence of LPS, 24 h; controls Dex 1 μM, 2 1 pM, 5 1 pM
Protocol: (§5) We investigated the potential cytotoxicity of all candidate sLXms by assaying LDH release.[50] The response to LPS was arbitrarily set to 100%, and values were expressed relative to this. As previously reported by others, LPS provokes LDH release.[51] […] Ultimately, untreated cells defined the spontaneous cell release thresholds.
(§6) Lactate dehydrogenase (LDH) was assayed in cell supernatants to investigate possible cytotoxicity of the lead compound. LDH is rapidly released into the culture medium after disruption of the plasma membrane.[67],[69] After 24 h of exposure to sLXms, vehicle, or controls, followed by LPS stimulation, as described above, THP-1-Lucia NF-κB-cell supernatants were collected and LDH was assayed. Cytotoxicity was evaluated relative to vehicle controls. Maximum releasable LDH was determined in cells lysed with 2% Triton-X-100 (Sigma-Aldrich, Ireland). LDH levels were assessed by reading the absorbance at 490 nm (protein) and 690 nm (background noise), using a spectrophotometer (SPECTRAMAX M2, Molecular Devices (U.K.) Limited).

[6] = tested on: IL-1β; experiment: LPS-induced IL-1β release from THP-1 Lucia monocytes (multiplex electrochemiluminescence); format: cell-based, human; conditions: Dex 1 μM; 2 1 pM; LPS 50 ng/mL, 24 h
Protocol: as §3, §4, §2

[7] = tested on: NF-κB; set-up: method as in PMID 30213823; conditions: LXA4 1 0.1 nM; 2 1 nM; cited from earlier work
[8] = tested on: THP-1 LUCIA monocytes; experiment: Extrinsic cytotoxicity: LDH release after LPS challenge; format: cell-based, human; conditions: Dex 1 μM
Protocol: as §5, §6

[9] = tested on: C57BL/6J mice; experiment: Murine zymosan-induced peritonitis; format: in vivo, mouse
Protocol: Male C57BL/6J mice of 9 weeks of age were purchased from Charles River (Kent, U.K.) and were housed in a specific pathogen-free facility in individually ventilated and filtered cages under positive pressure. Peritonitis was induced in mice by ip injection of zymosan (purchased from Sigma-Aldrich; 1 mg per mouse in 0.5 mL of phosphate-buffered saline (PBS)).[73] Mice were treated with dexamethasone (1 μg/g) purchased from Sigma-Aldrich 1 h prior to zymosan injection or (R)-6 (2 and 6 ng/g) (200 μL IP) 30 min prior to zymosan injection. Peritoneal cells were collected by lavage 4 h after injection of zymosan. The local Animal Use and Care Committee and The UK Home Office approved the animal experiments in accordance with the derivatives of both The Home Office Guidance on the Operation of Animals (Scientific Procedures) Act 1986 and The Guide for the Care and Use of Laboratory Animals of the National Research Council.
Surface marker expression on peritoneal cells was assessed by flow cytometry with data collection on a FACSCalibur (Becton Dickinson). Data were analyzed with FlowJo analysis software (Treestar Inc.). Cells were stained with AlexaFluor488 conjugated anti-F4/80 (clone BM8; eBioscience); APC conjugated anti-CD11b (clone M1/70; eBioscience) and Pacific blue conjugated anti-Ly6G (clone 1A8; BioLegend) antibodies. Prior to surface staining, peritoneal cells were counted manually (Neubauer chamber) with Turks solution. Using appropriate fluorescence minus one (FMO) controls, quadrants were drawn, and data were plotted on logarithmic-scale density- or dot-plots.

[10] = tested on: IL-8; experiment: LPS-induced IL-8 release from THP-1 Lucia monocytes (multiplex electrochemiluminescence); format: cell-based, human; conditions: Dex 1 μM; 1 1 nM; (R)-6 concentration not given
Protocol: as §3, §4

Compound | Ca^2+ mobilization in wild-type HEK-293 cells [1] | Ca^2+ mobilization by positive controls [2] | attenuation of IFNγ release, single-point controls [3] | Imax, IL-6 release, single-point controls [4] [%] | intrinsic LDH release versus vehicle / spontaneous cell release [5] | Imax, IL-1β release, single-point controls [6] [%] | effect on TNF-α-stimulated NF-κB activity [7] | effect on LPS-induced LDH [8] | Total no of PMNs ([9]; Dex ip (1 mg/kg in Figure 9) + zymosan 40 mg/kg, n = 5 mice) | relative proportion of PMNs and monocytes/macrophages (flow cytometry) ([9]; peritoneal cells, data not shown) | enhancement of LPS-induced secretion of IL-8 [10] [fold]
Nc1ncnc2c1ncn2[C@@H]1O[C@H](COP(=O)(O)OP(=O)(O)OP(=O)(O)O)[C@@H](O)[C@H]1O [ATP] | stimulated Ca^2+ mobilization | Ca^2+ mobilization was observed | – | – | – | – | – | – | – | – | –
CCCCC[C@@H](O)c1ccccc1/C=C/[C@@H](O)[C@@H](O)CCCC(=O)OC [Compound 2, benzo-LXA4, reference compound] | – | – | did not significantly alter | 42 ± 3 | did not display any significant cytotoxic effect | 59 ± 4 | reduced TNF-α-stimulated NF-κB activity | – | – | – | –
C[C@@H]1C[C@H]2[C@@H]3CCC4=CC(=O)C=C[C@]4(C)[C@@]3(F)[C@@H](O)C[C@]2(C)[C@@]1(O)C(=O)CO [Dex, dexamethasone, reference compound] | – | – | 56 ± 2% | 98 ± 1 | did not display any significant cytotoxic effect | 86 ± 6 | – | did not reduce LPS-induced LDH | 2.4 ± 0.7 × 10^6/mL | not to be altered | 2.5
W-peptide [Wp] | without effect | Ca^2+ mobilization was observed | – | – | – | – | – | – | – | – | –
